Data: patent US8609836B2, “4-aryl-2-anilino-pyrimidines” (Janssen Pharmaceutica NV, priority 2008, dated 2013)

Tests used:
CDK4/CyclinD1 (h) = CDK4/CyclinD1 (h) (Homo sapiens, UniProt P11802); experiment: CDK4/CyclinD1 human kinase inhibition, SPA with GST-pRb substrate; type: biochemical; details: read-out: CDK4 pIC50 (converted)
Description: The in vitro inhibition of a panel of kinases was assessed using either the scintillation proximity assay (SPA) as described by Cook, N. D. et al., Advances in Experimental Medicine and Biology (1991), 36; p. 525-528.
In the SPA technology the activity of the kinase of interest is measured using an appropriate biotinylated substrate that is incubated with the aforementioned kinase protein in the presence of (^33P) radiolabeled ATP. (^33P) Phosphorylation of the substrate is subsequently measured through binding of the phosphorylated substrate to streptavidine coated beads that are based on the scintillant poly(vinyl toluene) (PVT-Beads). The scintillation intensity is detected by imaging on Leadseeker.
All kinases are pre-diluted to a 10× working concentration prior to addition into the assay. The composition of the dilution buffer for each kinase is detailed below.
In a final reaction volume of 30 μl, CDK4/CyclinD1 (h) (2.5 μg/ml) is incubated with 50 mM Hepes pH 7.5, 8 mM NaF, 20 mM MgCl2, 1 mM DTT, 40 μg/ml of substrate GST-pRb, 2 nM [γ-^33P-ATP] (6.0 μCi/ml). After incubation of 60 minutes at room temperature, the reaction is stopped by addition of 40 μL of stop solution containing 8.7 mM EDTA, 0.17% Triton X-100, 25 mg/ml Glutathion SPA Beads (GE-healthcare). The plate is centrifuged and read for Scintillation topcount analyzer.

HCT-116 = experiment: Cellular proliferation assay (Alamar blue), HCT-116; type: cell-based; details: Homo sapiens, 10% FCS, 72 hours with compound, Alamar blue 4 h
Summary of the method: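 24 h seeding without compound, 10% FCS, 37° C/5% CO2; 72 h compound; Alamar blue (resazurin 9 μg/ml, ferro-/ferricyanide 90 μM) 4 h HCT-116, 6 h U87-MG, 24 h A2780/MDA-MB-231; fluorescence 544/590 nm vs control cells.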

AuroraB (h) = AuroraB (h) (Homo sapiens, UniProt Q96GD4); experiment: Aurora-B human kinase inhibition, SPA; type: biochemical; details: read-out: AuroraB pIC50 (converted)
Sequence of AuroraB (h) (Q96GD4 whole entry): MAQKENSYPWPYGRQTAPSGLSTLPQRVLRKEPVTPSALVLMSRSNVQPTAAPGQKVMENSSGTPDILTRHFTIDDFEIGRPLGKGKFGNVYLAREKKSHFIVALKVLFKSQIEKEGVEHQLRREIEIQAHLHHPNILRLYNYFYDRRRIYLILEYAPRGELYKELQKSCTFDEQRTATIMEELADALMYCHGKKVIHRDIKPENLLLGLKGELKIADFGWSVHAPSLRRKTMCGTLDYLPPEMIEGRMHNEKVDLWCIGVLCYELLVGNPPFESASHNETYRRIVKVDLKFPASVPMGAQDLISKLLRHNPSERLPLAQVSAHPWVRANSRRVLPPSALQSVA
Summary of the method: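 SPA with biotinylated peptide (3 μM) in 60 mM Hepes pH 7.5, Mg/Mn 3 mM each, 0.5 μM ATP plus [γ-33P]ATP, AuroraB at 0.5 μg/ml. The reaction runs 60 min at room temperature and is stopped with EDTA and streptavidin PVT beads. 33P-substrate is read by scintillation imaging.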

GSK3β (h) = GSK3β (h) (Homo sapiens, UniProt P49841); experiment: GSK-3β human kinase inhibition, SPA; type: biochemical; details: read-out: GSK3b pIC50 (converted)
Sequence of GSK3β (h) (P49841 whole entry): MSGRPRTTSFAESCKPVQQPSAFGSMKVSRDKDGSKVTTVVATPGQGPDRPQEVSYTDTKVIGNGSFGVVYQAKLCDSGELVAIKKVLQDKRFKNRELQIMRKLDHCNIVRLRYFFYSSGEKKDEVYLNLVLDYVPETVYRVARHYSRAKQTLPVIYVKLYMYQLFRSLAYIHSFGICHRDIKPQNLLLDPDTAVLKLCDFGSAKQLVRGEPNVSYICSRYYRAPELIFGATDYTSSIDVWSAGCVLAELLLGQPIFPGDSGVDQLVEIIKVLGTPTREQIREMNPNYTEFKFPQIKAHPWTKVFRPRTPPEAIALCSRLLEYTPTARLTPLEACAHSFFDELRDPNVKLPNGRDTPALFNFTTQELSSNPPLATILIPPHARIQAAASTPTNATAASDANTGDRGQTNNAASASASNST
Summary of the method: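 Scintillation proximity assay: GSK3β (1 μg/ml) with 1 μM biotinylated peptide, 1 μM ATP plus [γ-33P]ATP in Tris pH 7.4, MgCl2, DTT. 60 min at room temperature, stopped with EDTA and streptavidin PVT beads; phosphorylation read by Leadseeker imaging.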

Sequence of CDK4/CyclinD1 (h) (P11802 whole entry): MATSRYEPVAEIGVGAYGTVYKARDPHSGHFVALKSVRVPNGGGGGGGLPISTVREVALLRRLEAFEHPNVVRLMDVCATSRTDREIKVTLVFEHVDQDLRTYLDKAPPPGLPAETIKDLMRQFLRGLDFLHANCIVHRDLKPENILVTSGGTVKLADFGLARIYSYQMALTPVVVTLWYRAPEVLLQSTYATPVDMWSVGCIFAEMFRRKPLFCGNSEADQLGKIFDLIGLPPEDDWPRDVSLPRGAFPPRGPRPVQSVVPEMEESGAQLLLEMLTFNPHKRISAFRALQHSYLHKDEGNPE
Sequence of CDK4/CyclinD1 (h) (P24385 whole entry partner): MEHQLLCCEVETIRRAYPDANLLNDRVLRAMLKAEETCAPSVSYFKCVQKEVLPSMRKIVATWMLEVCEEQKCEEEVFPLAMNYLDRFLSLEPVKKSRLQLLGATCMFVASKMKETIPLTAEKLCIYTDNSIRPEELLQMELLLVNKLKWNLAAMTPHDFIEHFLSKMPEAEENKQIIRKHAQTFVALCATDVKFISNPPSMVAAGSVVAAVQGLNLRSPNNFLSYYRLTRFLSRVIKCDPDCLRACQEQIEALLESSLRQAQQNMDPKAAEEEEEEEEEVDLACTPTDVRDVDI

Compound | IC50 (CDK4/CyclinD1 (h)) [µM] | IC50 (HCT-116) [µM] | IC50 (AuroraB (h)) [µM] | IC50 (GSK3β (h)) [µM]
O=C1NCc2cc(ccc2N2CCOCC2)Nc2nccc(n2)-c2cccc(c2)CCN2CCC[C@@H]12 [Compound 43] | 0.427 | 1.78 | > 10 | 0.186
O=C1NCCNCc2ccc(cc2)-c2ccnc(n2)Nc2ccc(N3CCOCC3)c(c2)CN2CCC[C@@H]12 [Compound 157] | > 10 | 6.46 | 9.55 | 6.61
O=C1NCc2cccc(c2)-c2ccnc(n2)Nc2ccc(C(=O)N3CCOCC3)c(c2)CN2CCC[C@@H]12 [Compound 26] | > 10 | 2.19 | > 10 | 0.0676
O=C1NCc2cccc(c2)-c2ccnc(n2)Nc2cccc(c2)CN[C@H]1CO [Compound 187] | 1.2 | 1.35 | > 10 | 0.0537
O=C1NCc2cc(ccc2N2CCOCC2)Nc2nccc(n2)-c2cccc(c2)CN2CCC[C@@H]12 [Compound 15] | 4.47 | 8.32 | 2.95 | 0.372
COc1cc2cc(c1)Nc1nccc(n1)-c1ccc(OC)c(c1)CN(C)CCCNC(=O)C1CCN(CC1)C2 [Compound 73] | > 10 | 3.09 | > 10 | > 10
C[C@@H]1NCc2cc(ccc2N2CCOCC2)Nc2nccc(n2)-c2cccc(c2)CNC1=O [Compound 182] | 6.03 | > 10 | > 10 | 0.661
O=C1NCc2cccc(c2)-c2ccnc(n2)Nc2cccc(c2)CN2C[C@@H](O)C[C@@H]12 [Compound 45] | 0.933 | 0.295 | > 10 | 0.0724
COc1cc2cc(c1)Nc1nccc(n1)-c1ccc(OC)c(c1)CN(C)CCNC(=O)CN1CCN(CC1)C2 [Compound 127] | > 10 | 6.46 | 2 | 5.01
CN(C)C(=O)c1cc2cc(c1)Nc1nccc(n1)-c1cccc(c1)CNC(=O)[C@@H]1CCCN1C2 [Compound 35] | 1.35 | 1.32 | > 10 | 0.204
O=C1NCc2ccc(cc2)-c2ccnc(n2)Nc2ccc(N3CCOCC3)c(c2)CN2C[C@H](O)C[C@@H]12 [Compound 56] | > 10 | > 10 | > 10 | > 10
O=C1NCc2cccc(c2)-c2ccnc(n2)Nc2ccc(cc2)CN[C@H]1Cc1ccccc1 [Compound 192] | > 10 | > 10 | > 10 | > 10
CN(C)CCNC(=O)c1cc2cc(c1)Nc1nccc(n1)-c1cccc(c1)CNC(=O)[C@@H]1CCCN1C2 [Compound 39] | 1.12 | 1.23 | > 10 | 0.363
CN1CCNC(=O)[C@@H]2CCCN2Cc2cc(cc(N3CCOCC3)c2)Nc2nccc(n2)-c2ccc(cc2)C1 [Compound 154] | > 10 | > 10 | > 10 | > 10
COc1cc2cc(c1)Nc1nccc(n1)-c1ccc(OC)c(c1)CN(C)CCCNC(=O)CN1CCN(CC1)C2 [Compound 140] | > 10 | 1.55 | > 10 | 7.41
COCCNC(=O)c1cc2cc(c1)Nc1nccc(n1)-c1cccc(c1)CNC(=O)[C@@H]1CCCN1C2 [Compound 44] | 3.63 | 1.82 | > 10 | 0.166
O=C1NCc2cccc(c2)-c2ccnc(n2)Nc2cccc(c2)CN[C@H]1Cc1ccccc1 [Compound 185] | > 10 | 6.92 | > 10 | 0.0275
O=C1NCc2cccc(c2)-c2ccnc(n2)Nc2ccc(N3CCOCC3)c(c2)CN[C@H]1Cc1ccccc1 [Compound 18] | > 10 | 6.76 | > 10 | 0.389
CN1CCN(C(=O)c2ccc3cc2CN2CCC[C@H]2C(=O)NCc2cccc(c2)-c2ccnc(n2)N3)CC1 [Compound 25] | > 10 | 3.72 | > 10 | 0.0813
C[C@@H]1NCc2ccc(cc2)Nc2nccc(n2)-c2cccc(c2)CNC1=O [Compound 190] | > 10 | > 10 | > 10 | 1.29
C[C@@H]1NCc2ccc(Cl)c(c2)Nc2nccc(n2)-c2cccc(c2)CNC1=O [Compound 186] | > 10 | > 10 | > 10 | > 10
COc1ccc2cc1CN(C)CCNC(=O)CN1CCN(CC1)Cc1cc(NCCc3ccccc3)cc(c1)Nc1nccc-2n1 [Compound 138] | > 10 | 3.09 | > 10 | > 10
CC(C)(C)O[C@@H]1C[C@H]2C(=O)NCc3cccc(c3)-c3ccnc(n3)Nc3ccccc3CN2C1 [Compound 58] | > 10 | > 10 | > 10 | > 10
CC(C)Nc1cc2cc(c1)Nc1nccc(n1)-c1ccc(cc1)CN(C)CCCNC(=O)[C@@H]1CCCN1C2 [Compound 151] | > 10 | 3.55 | > 10 | > 10

The next lines start with the values.

IC50 (CDK4/CyclinD1 (h)) [µM] | IC50 (HCT-116) [µM] | IC50 (AuroraB (h)) [µM] | IC50 (GSK3β (h)) [µM] | Compound
1.29 | > 10 | > 10 | 3.72 | O=C1NCc2cccc(c2)-c2ccnc(n2)Nc2ccc(N3CCOCC3)c(c2)CN2CCC1CC2 [Compound 95]
> 10 | > 10 | 4.79 | > 10 | COc1ccc2cc1CN(C)CCNC(=O)[C@H](CO)NCc1cc(cc(N3CCOCC3)c1)Nc1nccc-2n1 [Compound 105]
> 10 | > 10 | 6.61 | > 10 | COc1ccc2cc1CN(C)CCCNC(=O)[C@H](CO)NCc1cccc(c1)Nc1nccc-2n1 [Compound 118]
3.63 | 9.12 | > 10 | 2.95 | O=C1NCCOc2cccc(c2)-c2ccnc(n2)Nc2ccc(N3CCOCC3)c(c2)CN2CCC1CC2 [Compound 94]
> 10 | 1.02 | > 10 | 1.07 | COc1cc2cc(c1)Nc1nccc(n1)-c1ccc(cc1)CN(C)CCCNC(=O)C1CCN(CC1)C2 [Compound 66]
3.47 | 1.23 | > 10 | 0.186 | CN1CCC(NC(=O)c2cc3cc(c2)Nc2nccc(n2)-c2cccc(c2)CNC(=O)[C@@H]2CCCN2C3)CC1 [Compound 38]
> 10 | 2.29 | > 10 | 6.03 | COc1ccc2cc1CN(C)CCNC(=O)[C@H](CO)NCc1cc(Br)cc(c1)Nc1nccc-2n1 [Compound 119]
> 10 | 2.75 | > 10 | 1.91 | COc1cc2cc(c1)Nc1nccc(n1)-c1ccc(cc1)CN(C)CCNC(=O)C1CCN(CC1)C2 [Compound 62]
> 10 | 6.61 | > 10 | > 10 | COc1cc2cc(c1)Nc1nccc(n1)-c1ccc(OC)c(c1)CN(C)CCCNC(=O)[C@@H]1CCCN1C2 [Compound 171]
> 10 | > 10 | > 10 | 3.24 | CC(C)Nc1cc2cc(c1)Nc1nccc(n1)-c1ccc(cc1)CN(C)CCCNC(=O)C1CCN(CC1)C2 [Compound 65]
> 10 | 4.17 | > 10 | > 10 | COc1ccc2cc1CN(C)CCNC(=O)[C@@H]1CCCN1Cc1cc(NCCc3ccccc3)cc(c1)Nc1nccc-2n1 [Compound 163]
3.31 | 5.13 | > 10 | 0.186 | O=C1NCc2cccc(c2)-c2ccnc(n2)Nc2cc(cc(C(=O)N3CCOCC3)c2)CN2CCC[C@@H]12 [Compound 32]
> 10 | 5.89 | > 10 | 2 | COc1cc2cc(c1)Nc1nccc(n1)-c1ccc(cc1)CN(C)CCNC(=O)CN1CCN(CC1)C2 [Compound 132]
1.58 | 3.8 | 2.29 | ~10.5 | O=C1NCc2ccc(cc2)-c2ccnc(n2)Nc2ccc(N3CCOCC3)c(c2)CN2CCC1CC2 [Compound 12]
